Assay results as given in patent US8455497B2, “Inhibitors of aspartyl protease” (Vertex Pharmaceuticals Incorporated, priority 1999, dated 2013).
Where two headings read alike, the source gives them in different places.

Tests used:
HIV-1 (strain IIIB) = assay: Antiviral activity assay in MT4 cells (propidium iodide based); assay type: cell-based
Method in brief: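 MT4 cells infected with HIV-1 IIIB (MOI 100×TCID50, 1 hr, 37°C), diluted 6-fold into wells with serially diluted compound, incubated 5 days. Cells lysed with Nonidet-40; DNA content per well estimated by propidium iodide staining as the viability read-out, with mock-infected controls.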

[1] = system: D545701-14 multi protease inhibitor resistant virus; assay: Anti-viral activity against resistant virus D545701-14 in MT4 cells; assay type: cell-based, HIV-1
Procedure: (§1) Exponentially growing MT4 cells were harvested and centrifuged at 1000 rpm for 10 min in a Jouan centrifuge (model CR 4 12). […] Cell aliquots were infected by the addition of HIV-1 (strain IIIB) diluted to give a viral multiplicity of infection of 100×TCID50. […] Cell infection was allowed to proceed for 1 hr at 37° in a tissue culture incubator with humidified 5% CO2 atmosphere. After the 1 hr incubation the virus/cell suspensions were diluted 6-fold with fresh medium, and 125 μl of the cell suspension was added to each well of the plate containing pre-diluted compound. Plates were then placed in a tissue culture incubator with humidified 5% CO2 for 5 days. At the end of the incubation period, 27 μl of 5% Nonidet-40 was added to each well of the incubation plate. After thorough mixing with a Costar multitip pipetter, 60 μl of the mixture was transferred to filter-bottomed 96-well plates. The plates were analyzed in an automated assay instrument (Screen Machine, Idexx Laboratories). The assay makes use of a propidium iodide dye to estimate the DNA content of each well.
(§2) Anti-Viral Activity Against Resistant Viruses
EP13 and DS45701, two multi protease inhibitor resistant viruses were used to assess potency against mutant viruses. These viruses contain the following mutations relative to the consensus sequence of wild type virus: […]

[2] = system: EP13 multi protease inhibitor resistant virus; assay: Anti-viral activity against resistant virus EP13 in MT4 cells; assay type: cell-based, HIV-1
Procedure: as §1, §2
EP13 and DS45701, two multi protease inhibitor resistant viruses were used to assess potency against mutant viruses. These viruses contain the following mutations relative to the consensus sequence of wild type virus:
EP13: Protease amino acid sequence: M46I, L63P, A71V, V82F/L, I84V; No reverse transcriptase mutations.

[3] = Human immunodeficiency virus 1, IIIB, wild type HIV-1 virus, MT4 cells, read-out: Wildtype virus - IC50
[4] = Human immunodeficiency virus 1, MT4, read-out: D545701-14 mutant - IC50, D545701-14 multi protease inhibitor resistant virus, MT4 cells
[5] = Human immunodeficiency virus 1, MT4, read-out: EP13 mutant IC50, EP13 multi protease inhibitor resistant virus, MT4 cells
[6] = Human immunodeficiency virus 1, MT4, 120 h, MT-4 cells, HIV-1 strain IIIB, 5 days, read-out: IC50 (Antiviral Activity of Compounds of the Invention)
[7] = wild type HIV-1 virus, MT4 cells, read-out: Wildtype virus - IC50
[8] = D545701-14 multi protease inhibitor resistant virus, MT4 cells, read-out: D545701-14 mutant - IC50
[9] = EP13 multi protease inhibitor resistant virus, MT4 cells, read-out: EP13 mutant IC50

SMILES | IC50 (HIV-1 (strain IIIB); [3]) [nM] | IC50 [1, 4] [nM] | IC50 [2, 5] [nM] | other results
CC(C)CN(C[C@@H](O)[C@H](Cc1ccc(OCCCNc2cc[nH]n2)cc1)NC(=O)OC1CO[C@H]2OCC[C@@H]12)S(=O)(=O)c1ccc2c(c1)OCO2 (stereo in doubt) [Compound 281, (3R,3aS,6aR)-hexahydrofuro[2,3-b]furan-3-yl (1S,2R)-3-[(1,3-benzodioxol-5-ylsulfonyl)(isobutyl)amino]-2-hydroxy-1-{4-[3-(1H-pyrazol-3-ylamino)propoxy]benzyl}propylcarbamate] | 1 to 10 | 1 to 10 | 1 to 10 | –
CNC(=O)CCCOc1ccc(C[C@H](NC(=O)OC2CO[C@H]3OCC[C@@H]23)[C@H](O)CN(CC(C)C)S(=O)(=O)c2ccc3c(c2)OCO3)cc1 (stereo in doubt) [Compound 286, (3R,3aS,6aR)-hexahydrofuro[2,3-b]furan-3-yl (1S,2R)-3-[(1,3-benzodioxol-5-ylsulfonyl)(isobutyl)amino]-2-hydroxy-1-{4-[4-(methylamino)-4-oxobutoxy]benzyl}propylcarbamate] | 10 to 100 | 1 to 10 | 1 to 10 | –
CC(C)CN(C[C@@H](O)[C@H](Cc1ccc(OCCCC(=O)N(C)C)cc1)NC(=O)OC1CO[C@H]2OCC[C@@H]12)S(=O)(=O)c1ccc2c(c1)OCO2 (stereo in doubt) [Compound 287, (3R,3aS,6aR)-hexahydrofuro[2,3-b]furan-3-yl (1S,2R)-3-[(1,3-benzodioxol-5-ylsulfonyl)(isobutyl)amino]-1-{4-[4-(dimethylamino)-4-oxobutoxy]benzyl}-2-hydroxypropylcarbamate] | 1 to 10 | 1 to 10 | 1 to 10 | –
CC(C)CN(CC(O)[C@H](Cc1ccc(OCc2ccccn2)cc1)NC(=O)O[C@H]1CO[C@H]2OCC[C@H]21)S(=O)(=O)c1ccc2c(c1)OCCO2 (stereo in doubt) [Compound 337, (3R,3aS,6aR)-hexahydrofuro[2,3-b]furan-3-yl (1S,2S)-3-[(2,3-dihydro-1,4-benzodioxin-6-ylsulfonyl)(isobutyl)amino]-2-hydroxy-1-[4-(2-pyridinylmethoxy)benzyl]propylcarbamate] | 1 to 10 | 1 to 10 | 1 to 10 | –
CC(C)CN(C[C@@H](O)[C@H](Cc1ccc(OCc2cccnc2)cc1)NC(=O)O[C@H]1CO[C@H]2OCC[C@H]21)S(=O)(=O)c1ccc2c(c1)OCO2 [Compound 52, Bis-THF Methylenedioxybenzenesulfonamide 3-picolyl Tethered Product] | 10 to 100 | 1 to 10 | 1 to 10 | IC50 (HIV-1 (strain IIIB); [6]): 1 to 10 nM
CC(C)CN(C[C@@H](O)[C@H](Cc1ccc(OCc2ccccn2)cc1)NC(=O)O[C@H]1CO[C@H]2OCC[C@H]21)S(=O)(=O)c1ccc2c(c1)OCO2 [Compound 53, Bis-THF Methylenedioxybenzenesulfonamide 2-picolyl Tethered Product] | 1 to 10 | 1 to 10 | 1 to 10 | IC50 (HIV-1 (strain IIIB); [6]): 1 to 10 nM
CC(C)CN(C[C@@H](O)[C@H](Cc1ccc(OCc2ccncc2)cc1)NC(=O)O[C@H]1CO[C@H]2OCC[C@H]21)S(=O)(=O)c1ccc2c(c1)OCO2 [Compound 54, Bis-THF Methylenedioxybenzenesulfonamide 4-picolyl Tethered Product] | 10 to 100 | 1 to 10 | 1 to 10 | IC50 (HIV-1 (strain IIIB); [6]): 1 to 10 nM
Cc1cc(COc2ccc(C[C@H](NC(=O)O[C@H]3CO[C@H]4OCC[C@H]43)[C@H](O)CN(CC(C)C)S(=O)(=O)c3ccc4c(c3)OCO4)cc2)no1 [Compound 55, Bis-THF Methylenedioxybenzenesulfonamide 3-methyl-5-methylisoxazole Tethered Product] | – | 1 to 10 | 1 to 10 | IC50 (HIV-1 (strain IIIB); [6]): < 1 nM
CC(C)CN(C[C@@H](O)[C@H](Cc1ccc(OCCc2ccccc2)cc1)NC(=O)O[C@H]1CO[C@H]2OCC[C@H]21)S(=O)(=O)c1ccc2c(c1)OCO2 [Compound 202, (3R,3aS,6aR)hexahydrofuro[2,3-b]furan-3-yl (1S,2R)-3-[(1,3-benzodioxol-5-ylsulfonyl)(isobutyl)amino]-2-hydroxy-1-[4-(phenethyloxy)benzyl]propylcarbamate] | < 1 | 1 to 10 | < 1 | –
CC(C)CN(C[C@@H](O)[C@H](Cc1ccc(OCCCc2ccccc2)cc1)NC(=O)O[C@H]1CO[C@H]2OCC[C@H]21)S(=O)(=O)c1ccc2c(c1)OCO2 [Compound 203, (3R,3aS,6aR)hexahydrofuro[2,3-b]furan-3-yl (1S,2R)-3-[(1,3-benzodioxol-5-ylsulfonyl)(isobutyl)amino]-2-hydroxy-1-[4-([3-phenylpropyl]oxy)benzyl]propylcarbamate] | < 1 | – | 1 to 10 | IC50 ([1]; read-out: D545701-14 mutant - IC50, D545701-14 multi protease inhibitor resistant virus, MT4 cells): 10 to 100 nM
CC(C)CN(C[C@@H](O)[C@H](Cc1ccc(OCCCC(F)(F)F)cc1)NC(=O)O[C@H]1CO[C@H]2OCC[C@H]21)S(=O)(=O)c1ccc2c(c1)OCCO2 [Compound 204, (3R,3aS,6aR)-hexahydrofuro[2,3-b]furan-3-yl (1S,2R)-3-[(2,3-dihydro-1,4-benzodioxin-6-ylsulfonyl)(isobutyl)amino]-2-hydroxy-1-[4-(4,4,4-trifluorobutoxy)benzyl]propylcarbamate] | 1 to 10 | 1 to 10 | 1 to 10 | –
CC(C)CN(C[C@@H](O)[C@H](Cc1ccc(OCCc2ccc(F)cc2)cc1)NC(=O)O[C@H]1CO[C@H]2OCC[C@H]21)S(=O)(=O)c1ccc2c(c1)OCO2 [Compound 205] | – | – | – | IC50 (HIV-1 (strain IIIB); [7]): 1 to 10 nM; IC50 [1, 8]: 10 to 100 nM; IC50 [2, 9]: 10 to 100 nM
COc1ccc(CCOc2ccc(C[C@H](NC(=O)O[C@H]3CO[C@H]4OCC[C@H]43)[C@H](O)CN(CC(C)C)S(=O)(=O)c3ccc4c(c3)OCO4)cc2)cc1 [Compound 206] | – | – | – | IC50 (HIV-1 (strain IIIB); [7]): 1 to 10 nM; IC50 [1, 8]: 10 to 100 nM; IC50 [2, 9]: 10 to 100 nM
CC(C)CN(C[C@@H](O)[C@H](Cc1ccc(OCCNC(=O)OC(C)(C)C)cc1)NC(=O)O[C@H]1CO[C@H]2OCC[C@H]21)S(=O)(=O)c1ccc2c(c1)OCO2 [Compound 219, (3R,3aS,6aR)-hexahydrofuro[2,3-b]furan-3-yl (1S,2R)-3-[(1,3-benzodioxol-5-ylsulfonyl)(isobutyl)amino]-1-(4-{2-[(tert-butoxycarbonyl)amino]ethoxy}benzyl)-2-hydroxypropylcarbamate] | 1 to 10 | 1 to 10 | 1 to 10 | –
CC(C)CN(C[C@@H](O)[C@H](Cc1ccc(OCCCNC(=O)OC(C)(C)C)cc1)NC(=O)O[C@H]1CO[C@H]2OCC[C@H]21)S(=O)(=O)c1ccc2c(c1)OCO2 [Compound 221, (3R,3aS,6aR)-hexahydrofuro[2,3-b]furan-3-yl (1S,2R)-3-[(1,3-benzodioxol-5-ylsulfonyl)(isobutyl)amino]-1-(4-{3-[(tert-butoxycarbonyl)amino]propoxy}benzyl)-2-hydroxypropylcarbamate] | 1 to 10 | 1 to 10 | 1 to 10 | –
CC(C)CN(C[C@@H](O)[C@H](Cc1ccc(OCCCCNC(=O)OC(C)(C)C)cc1)NC(=O)O[C@H]1CO[C@H]2OCC[C@H]21)S(=O)(=O)c1ccc2c(c1)OCO2 [Compound 223, (3R,3aS,6aR)-hexahydrofuro[2,3-b]furan-3-yl (1S,2R)-3-(1,3-benzodioxol-5-ylsulfonyl)(isobutyl)amino-1-(4-{4-[(tert-butoxycarbonyl)amino]butoxy}benzyl)-2-hydroxypropylcarbamate] | 1 to 10 | 1 to 10 | 1 to 10 | –
COC(=O)NCCOc1ccc(C[C@H](NC(=O)O[C@H]2CO[C@H]3OCC[C@H]32)[C@H](O)CN(CC(C)C)S(=O)(=O)c2ccc3c(c2)OCO3)cc1 [Compound 226, (3R,3aS,6aR)-hexahydrofuro[2,3-b]furan-3-yl (1S,2R)-3-[(1,3-benzodioxol-5-ylsulfonyl)(isobutyl)amino]-2-hydroxy-1-(4-{2-[(methoxycarbonyl)amino]ethoxy}benzyl)propylcarbamate] | < 1 | – | – | IC50 ([1]; Human immunodeficiency virus 1, MT4, read-out: D545701-14 mutant - IC50): 1 to 10 nM; IC50 ([2]; Human immunodeficiency virus 1, MT4, read-out: EP13 mutant IC50): < 1 nM
CC(=O)NCCCOc1ccc(C[C@H](NC(=O)O[C@H]2CO[C@H]3OCC[C@H]32)[C@H](O)CN(CC(C)C)S(=O)(=O)c2ccc3c(c2)OCO3)cc1 [Compound 229] | – | – | – | IC50 (HIV-1 (strain IIIB); [7]): 10 to 100 nM; IC50 [1, 8]: 1 to 10 nM; IC50 [2, 9]: 1 to 10 nM
